Test results reported in paper PMC5653977 (EMBO Molecular Medicine, 2017).

Tests used:
[1] = biological target: ERBB2-NTEV-tevS-GV + ERBB2-CTEV (Homo sapiens, UniProt P04626); assay: ERBB dimerization split TEV assay ERBB2/ERBB2; format: cell-based; settings: 10 ng/ml EGFld
Excerpt: Gateway recombination cloning (Life Technologies) was applied for generating plasmids. Each ORF cloned was PCR‐amplified using the Pwo proofreading DNA polymerase (Roche) and BP‐recombined into the pDONR/Zeo plasmid (Life Technologies) to yield an entry vector, which was control‐digested using BsrGI to release the insert, and sequence‐verified. The following human ORFs were cloned using cDNA image clones ordered from Source BioScience: ERBB4 transcript variant JM‐a/CYT‐1 (Accession: BC112199), PIK3R1 (BC094795), GRB2 transcript variant 1 (BC000631), SHC1 transcript variant 2 (BC014158), STAT5A (BC027036), and SRC transcription variant 1 (BC051270). For EGFR, ERBB2, and ERBB3, entry vectors were obtained from the human CCSB kinase collection available from Addgene (Johannessen et al, 2010). Entry vectors were LR‐recombined into split TEV destination vectors [either pcDNA_attR1‐ORF‐attR2‐NTEV‐tevS‐GV‐2xHA_DEST or pTag4C_attR1‐ORF‐attR2‐CTEV‐2xHA_DEST, plasmids were described in detail before (Wehr et al, 2006)] to yield expression vectors, which were control‐digested using BsrGI. The plasmids for Nrg1 type I β1a and rat Nrg1 type III β1a have been described before (Wehr et al, 2006).

PC12 cells = assay: Renilla luciferase readings as toxicity control in dose-response assay; format: cell-based; settings: dose-response co-culture assay, Nrg1 type I β1a, 24 h
Excerpt: For our HTS‐compatible split TEV assay approach, human full‐length ERBB4‐Cyt1 was fused to the NTEV fragment, a TEV protease cleavage site (tevS) and the artificial co‐transcriptional activator Gal4‐VP16 (ERBB4‐NTEV‐tevS‐GV); human PIK3R1 was fused to the CTEV fragment (PIK3R1‐CTEV) (Fig 1A). Upon ERBB4 activation, PIK3R1 is recruited to the receptor resulting in a reconstituted protease activity that cleaves off GV. In turn, released GV translocates to the nucleus and binds to upstream activating sequences (UAS) to activate the transcription of a firefly luciferase reporter gene (Fig 1A). A constitutively expressed Renilla luciferase driven under the control of the human thymidine kinase (TK) promoter was used as control to address off‐target effects related to toxicity.

[2] = test system: pyramidal neurons of the prefrontal cortex; assay: Evoked inhibitory postsynaptic currents (eIPSCs) in acute prefrontal cortex slices; format: cell-based, mouse; settings: 5 μM in the presence of canrenone (10 μM)
Method: 300‐μm‐thick transverse slices comprising the medial prefrontal cortex (mPFC) area were prepared from 7‐ to 8‐week‐old C57Bl/6 mice as described previously (Teng et al, 2013; Agarwal et al, 2014). All recordings were performed in cortical layer V projection neurons. The bath solution consisted of oxygenated artificial cerebrospinal fluid (ACSF) containing NaCl 126 mM, KCl 3 mM, NaH2PO4 1.25 mM, MgSO4 1 mM, NaHCO3 26 mM, CaCl2 2 mM, glucose 10 mM, and the pH 7.2 adjusted with NaOH. Spontaneous GABAergic inhibitory postsynaptic currents (sIPSC) and evoked GABAergic inhibitory postsynaptic currents (eIPSC) were recorded at a holding potential of −70 mV in the presence of 6‐cyano‐7‐nitroquinoxaline‐2,3‐dione (CNQX, 10 μM) and DL‐2‐amino‐5‐phosphonovaleric acid (D‐APV, 50 μM). Glass pipettes were filled with the solution containing: KCl 140 mM, MgCl2 2 mM, CaCl2 1 mM, Na2GTP 0.5 mM, Na2ATP 4 mM, EGTA 10 mM, HEPES 10 mM. Patches with a series resistance of > 25 MΩ, a membrane resistance of < 0.8 GΩ, or leak currents of > 150 pA were excluded. Biphasic rectangular electric pulses (10 ms, 100–300 μA) were applied to layer I of the prelimbic area of mPFC through another glass pipette filled with ACSF. Synaptic currents were acquired at 20 kHz and filtered at 6 kHz, with a Digidata 1440 ADC‐converter coupled to a Multiclamp 700B amplifier (Molecular Devices, USA). […]

Nrg1-tg and wt mice [3] = assay: Y-maze test; format: in vivo, mouse; settings: 50 mg/kg s.c. daily
Method: (§1) For behavioral testing, age‐matched male mice (8–16 weeks) on C57Bl/6 background that constitutively overexpress the 2xHA‐tagged Nrg1 type III β1a isoform (Nrg1‐tg) under the control of the mouse Thy1.2 promoter (Velanac et al, 2012) and their wild‐type (wt) littermates as controls were used. Animals were group‐housed in the same ventilated sound‐attenuated rooms under a 12‐h light/12‐h dark schedule (lights on at 8:00 am) at an ambient temperature of 21°C with food and water available ad libitum. One week prior to experiments, mice were separated into single cages and habituated to the experimental rooms. To minimize the influence of the circadian rhythm on drug actions, the treatment groups were analyzed at balanced time points during the light phase. […] All animal experiments were conducted in accordance with NIH principles of laboratory animal care and were approved by the Government of Lower Saxony, Germany, in accordance with the German Animal Protection Law.
(§2) Treatment was continued throughout the behavioral analysis period. To avoid injection‐induced stress prior to behavioral testing, mice were injected in the afternoon, after the entire cohort has completed the behavioral paradigm.

Nrg1-tg and wt mice [4] = assay: Fear conditioning; format: in vivo, mouse; settings: 50 mg/kg s.c. daily
Method: as §1, §2

[5] = mouse, in vivo
Method: as §2

[6] = design: method as in Wu et al, 2012; settings: ref Wu et al, 2012; cited from earlier work
[7] = design: method as in Juruena et al, 2009; settings: ref Juruena et al, 2009; cited from earlier work
[8] = design: method as in Zhou et al, 2011; settings: ref Zhou et al, 2011; cited from earlier work

Sequence of ERBB2-NTEV-tevS-GV + ERBB2-CTEV (P04626 23-1255): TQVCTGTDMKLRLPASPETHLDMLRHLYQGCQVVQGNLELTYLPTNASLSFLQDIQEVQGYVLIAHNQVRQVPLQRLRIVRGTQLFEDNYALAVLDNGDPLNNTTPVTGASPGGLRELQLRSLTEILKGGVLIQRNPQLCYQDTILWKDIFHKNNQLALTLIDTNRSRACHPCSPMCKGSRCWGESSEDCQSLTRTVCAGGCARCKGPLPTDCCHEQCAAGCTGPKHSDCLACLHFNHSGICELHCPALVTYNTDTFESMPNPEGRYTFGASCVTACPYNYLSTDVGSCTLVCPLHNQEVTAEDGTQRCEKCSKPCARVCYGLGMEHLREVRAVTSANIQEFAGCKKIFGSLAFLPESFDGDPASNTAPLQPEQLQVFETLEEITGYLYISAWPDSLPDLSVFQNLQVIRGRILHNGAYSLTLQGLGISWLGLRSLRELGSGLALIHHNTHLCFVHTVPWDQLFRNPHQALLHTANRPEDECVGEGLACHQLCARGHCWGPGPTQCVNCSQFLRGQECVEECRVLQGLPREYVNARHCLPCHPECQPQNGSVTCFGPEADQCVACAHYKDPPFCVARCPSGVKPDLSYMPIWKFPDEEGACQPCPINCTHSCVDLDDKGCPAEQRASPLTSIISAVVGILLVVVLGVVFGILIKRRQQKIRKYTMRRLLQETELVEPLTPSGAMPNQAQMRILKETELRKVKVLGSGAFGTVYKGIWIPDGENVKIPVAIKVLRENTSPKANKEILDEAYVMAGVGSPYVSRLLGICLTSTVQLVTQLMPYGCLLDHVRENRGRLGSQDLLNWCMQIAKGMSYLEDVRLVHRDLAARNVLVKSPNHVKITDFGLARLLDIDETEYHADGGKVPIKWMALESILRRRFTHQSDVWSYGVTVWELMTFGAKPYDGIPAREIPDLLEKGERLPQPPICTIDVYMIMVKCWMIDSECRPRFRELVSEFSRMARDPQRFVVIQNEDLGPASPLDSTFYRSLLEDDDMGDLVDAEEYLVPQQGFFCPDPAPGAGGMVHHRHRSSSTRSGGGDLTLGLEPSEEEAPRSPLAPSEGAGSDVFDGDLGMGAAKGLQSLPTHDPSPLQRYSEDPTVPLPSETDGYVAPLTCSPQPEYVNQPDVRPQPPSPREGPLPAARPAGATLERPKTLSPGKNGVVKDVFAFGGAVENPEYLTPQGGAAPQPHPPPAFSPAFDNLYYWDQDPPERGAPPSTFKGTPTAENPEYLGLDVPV
Sequence of ERBB2-NTEV-tevS-GV + ERBB2-CTEV (P04626 23-1255): as above

In the case of CC(=O)S[C@@H]1CC2=CC(=O)CC[C@]2(C)[C@H]2CC[C@@]3(C)[C@@H](CC[C@@]34CCC(=O)O4)[C@H]12 [Spironolactone], the IC50 [1] is reported as 13.1 µM, the “toxic effects (reduced Renilla luciferase readings)” value (PC12 cells) is reported as “marginal toxic effects at higher concentrations” and the eIPSC amplitude [2] is reported as “significantly increased”. For the same compound, the “arm choices in the Y-maze (activity)” value (Nrg1-tg and wt mice [3]) was “There was no effect of treatment”, the “working memory (alterations in the Y-maze)” value (Nrg1-tg and wt mice [3]; Nrg1-tg mice) was “rescued these deficits” and the cue memory (Nrg1-tg and wt mice [4]) was “neither genotype nor treatment‐dependent alterations”. The “freezing in the contextual fear memory test” value (Nrg1-tg and wt mice [4]; Nrg1-tg mice) was “non‐significant reduction in freezing”, the “side effect in treated mice” value [5] was “no major side effect” and the “motivation and curiosity in mice” value [6] was “increase motivation and curiosity”. The “anxiety in a small group of patients suffering from bipolar disorder” value [7] was “partially improved” and the “recent fear memory formation in mice” value [8] was “impaired recent fear memory formation”.
